According to patent publication US9873709B2 (priority 2013, dated 2018):

These molecules were tested on JAK1-dependent STAT6 phosphorylation downstream of IL-13 stimulation in TF-1 human erythroleukemia cells (assay: cells). Details: TF-1, read-out: IL-13-pSTAT6 IC50.

| IC50 | Compound |
| --- | --- |
| 8.7 nM | CN1CCC(N(C)C(=O)c2ccc(Nc3nc4c(C5=CCN(C(=O)CCC(F)(F)F)CC5)cccn4n3)cc2)C1 (stereo not drawn) [Example 2-267, N-methyl-N-(1-methylpyrrolidin-3-yl)-4-[[8-[1-(4,4,4-trifluorobutanoyl)-3,6-dihydro-2H-pyridin-4-yl]-[1,2,4]triazolo[1,5-a]pyridin-2-yl]amino]benzamide] |
| 5.1 nM | CC1CC(C)CN(CCNC(=O)c2ccc(Nc3nc4c(C5=CCN(C(=O)CCC(F)(F)F)CC5)cccn4n3)cc2)C1 (stereo not drawn) [Example 2-269, N-[2-(3,5-dimethyl-1-piperidyl)ethyl]-4-[[8-[1-(4,4,4-trifluorobutanoyl)-3,6-dihydro-2H-pyridin-4-yl]-[1,2,4]triazolo[1,5-a]pyridin-2-yl]amino]benzamide] |
| 16.4 nM | CN1CCN(CCNC(=O)c2ccc(Nc3nc4c(C5=CCN(C(=O)CCC(F)(F)F)CC5)cccn4n3)cc2)CC1 [Example 2-270, N-[2-(4-methylpiperazin-1-yl)ethyl]-4-[[8-[1-(4,4,4-trifluorobutanoyl)-3,6-dihydro-2H-pyridin-4-yl]-[1,2,4]triazolo[1,5-a]pyridin-2-yl]amino]benzamide] |
| 5.5 nM | O=C(CCC(F)(F)F)N1CC=C(c2cccn3nc(Nc4ccc(C(=O)N5CCCC5c5ccncc5)cc4)nc23)CC1 (stereo not drawn) [Example 2-273, 4,4,4-trifluoro-1-[4-[2-[4-[2-(4-pyridyl)pyrrolidine-1-carbonyl]anilino]-[1,2,4]triazolo[1,5-a]pyridin-8-yl]-3,6-dihydro-2H-pyridin-1-yl]butan-1-one] |
| 45 nM | CN1CCC(CCNC(=O)c2ccc(Nc3nc4c(C5=CCN(C(=O)CCC(F)(F)F)CC5)cccn4n3)cc2)CC1 [Example 2-274, N-[2-(1-methyl-4-piperidyl)ethyl]-4-[[8-[1-(4,4,4-trifluorobutanoyl)-3,6-dihydro-2H-pyridin-4-yl]-[1,2,4]triazolo[1,5-a]pyridin-2-yl]amino]benzamide] |
| 37.2 nM | CNC(=O)C1CN(C(=O)c2ccc(Nc3nc4c(C5=CCN(C(=O)CCC(F)(F)F)CC5)cccn4n3)cc2)CCN1C (stereo not drawn) [Example 2-275, N,1-dimethyl-4-[4-[[8-[1-(4,4,4-trifluorobutanoyl)-3,6-dihydro-2H-pyridin-4-yl]-[1,2,4]triazolo[1,5-a]pyridin-2-yl]amino]benzoyl] piperazine-2-carboxamide] |
| 129 nM | CNC(=O)C1CN(C)CCN1C(=O)c1ccc(Nc2nc3c(C4=CCN(C(=O)CCC(F)(F)F)CC4)cccn3n2)cc1 (stereo not drawn) [Example 2-276, N,4-dimethyl-1-[4-[[8-[1-(4,4,4-trifluorobutanoyl)-3,6-dihydro-2H-pyridin-4-yl]-[1,2,4]triazolo[1,5-a]pyridin-2-yl]amino]benzoyl] piperazine-2-carboxamide] |
| 19.8 nM | O=C(CCC(F)(F)F)N1CC=C(c2cccn3nc(Nc4ccc(C(=O)N5CCC(Cc6cccnc6)CC5)cc4)nc23)CC1 [Example 2-277, 4,4,4-trifluoro-1-[4-[2-[4-[4-(3-pyridylmethyl)piperidine-1-carbonyl]anilino]-[1,2,4]triazolo[1,5-a]pyridin-8-yl]-3,6-dihydro-2H-pyridin-1-yl]butan-1-one] |
| 39.3 nM | O=C(CCC(F)(F)F)N1CC=C(c2cccn3nc(Nc4ccc(C(=O)N5CCCN(c6ccncc6)CC5)cc4)nc23)CC1 [Example 2-278, 4,4,4-trifluoro-1-[4-[2-[4-[4-(4-pyridyl)-1,4-diazepane-1-carbonyl]anilino]-[1,2,4]triazolo[1,5-a]pyridin-8-yl]-3,6-dihydro-2H-pyridin-1-yl]butan-1-one] |
| 38.8 nM | O=C(CCC(F)(F)F)N1CC=C(c2cccn3nc(Nc4ccc(C(=O)N(CCO)Cc5cccnc5)cc4)nc23)CC1 [Example 2-279, N-(2-hydroxyethyl)-N-(3-pyridylmethyl)-4-[[8-[1-(4,4,4-trifluorobutanoyl)-3,6-dihydro-2H-pyridin-4-yl]-[1,2,4]triazolo[1,5-a]pyridin-2-yl]amino]benzamide] |
| 9.5 nM | O=C(CCC(F)(F)F)N1CC=C(c2cccn3nc(Nc4ccc(C(=O)N5CCCCC5c5cccnc5)cc4)nc23)CC1 (stereo not drawn) [Example 2-280, 4,4,4-trifluoro-1-[4-[2-[4-[2-(3-pyridyl)piperidine-1-carbonyl]anilino]-[1,2,4]triazolo[1,5-a]pyridin-8-yl]-3,6-dihydro-2H-pyridin-1-yl]butan-1-one] |
| 39.4 nM | CN1CCC(N(C)C(=O)c2ccc(Nc3nc4c(C5=CCN(C(=O)C6CCCC6)CC5)cccn4n3)cc2)CC1 [Example 2-281, 4-[[8-[1-(cyclopentanecarbonyl)-3,6-dihydro-2H-pyridin-4-yl]-[1,2,4]triazolo[1,5-a]pyridin-2-yl]amino]-N-methyl-N-(1-methyl-4-piperidyl)benzamide] |
| 54 nM | CN1CCC(N(C)C(=O)c2ccc(Nc3nc4c(C5=CCN(C(=O)OC6COC6)CC5)cccn4n3)cc2)CC1 [Example 2-283, oxetan-3-yl-4-[2-[4-[methyl-(1-methyl-4-piperidyl)carbamoyl]anilino]-[1,2,4]triazolo[1,5-a]pyridin-8-yl]-3,6-dihydro-2H-pyridine-1-carboxylate] |
| 163 nM | CN1CCC(N(C)C(=O)c2ccc(Nc3nc4c(C5=CCN(c6ccccc6)CC5)cccn4n3)cc2)CC1 [Example 2-284, N-methyl-N-(1-methyl-4-piperidyl)-4-[[8-(1-phenyl-3,6-dihydro-2H-pyridin-4-yl)-[1,2,4]triazolo[1,5-a]pyridin-2-yl]amino]benzamide] |
| 1750 nM | CN1CCC(N(C)C(=O)c2ccc(Nc3nc4c(C5=CCN(C(=O)N6CC7(COC7)C6)CC5)cccn4n3)cc2)CC1 [Example 2-286, N-methyl-N-(1-methyl-4-piperidyl)-4-[[8-[1-(2-oxa-6-azaspiro[3.3]heptane-6-carbonyl)-3,6-dihydro-2H-pyridin-4-yl]-[1,2,4]triazolo[1,5-a]pyridin-2-yl]amino]benzamide] |
| 248 nM | CN1CCC(N(C)C(=O)c2ccc(Nc3nc4c(C5=CCN(C(=O)CCC#N)CC5)cccn4n3)cc2)CC1 [Example 2-287, 4-[[8-[1-(3-cyanopropanoyl)-3,6-dihydro-2H-pyridin-4-yl]-[1,2,4]triazolo[1,5-a]pyridin-2-yl]amino]-N-methyl-N-(1-methyl-4-piperidyl)benzamide] |
| 42.9 nM | CCCC(=O)N1CC=C(c2cccn3nc(Nc4ccc(C(=O)N(C)C5CCN(C)CC5)cc4)nc23)CC1 [Example 2-289, 4-[[8-(1-butanoyl-3,6-dihydro-2H-pyridin-4-yl)-[1,2,4]triazolo[1,5-a]pyridin-2-yl]amino]-N-methyl-N-(1-methyl-4-piperidyl)benzamide] |
| 37.7 nM | CN1CCC(N(C)C(=O)c2ccc(Nc3nc4c(C5=CCN(C(=O)N6CC(C)(C)C6)CC5)cccn4n3)cc2)CC1 [Example 2-290, 4-[[8-[1-(3,3-dimethylazetidine-1-carbonyl)-3,6-dihydro-2H-pyridin-4-yl]-[1,2,4]triazolo[1,5-a]pyridin-2-yl]amino]-N-methyl-N-(1-methyl-4-piperidyl)benzamide] |
| 22.3 nM | CCOC(=O)N1CC=C(c2cccn3nc(Nc4ccc(C(=O)NCCCN5CCN(C)CC5)cc4)nc23)CC1 [Example 2-291, ethyl 4-[2-[4-[3-(4-methylpiperazin-1-yl)propylcarbamoyl]anilino]-[1,2,4]triazolo[1,5-a]pyridin-8-yl]-3,6-dihydro-2H-pyridine-1-carboxylate] |
| 29.5 nM | CCOC(=O)N1CC=C(c2cccn3nc(Nc4ccc(C(=O)NCC5CCCN(C)C5)cc4)nc23)CC1 (stereo not drawn) [Example 2-293, ethyl 4-[2-[4-[(1-methyl-3-piperidyl)methylcarbamoyl]anilino]-[1,2,4]triazolo[1,5-a]pyridin-8-yl]-3,6-dihydro-2H-pyridine-1-carboxylate] |
| 383 nM | CCOC(=O)N1CC=C(c2cccn3nc(Nc4ccc(C(=O)NCC5CCNC5)cc4)nc23)CC1 (stereo not drawn) [Example 2-296, ethyl 4-[2-[4-(pyrrolidin-3-ylmethylcarbamoyl)anilino]-[1,2,4]triazolo[1,5-a]pyridin-8-yl]-3,6-dihydro-2H-pyridine-1-carboxylate] |
| 438 nM | CCOC(=O)N1CC=C(c2cccn3nc(Nc4ccc(C(=O)NCC5CC56CCNCC6)cc4)nc23)CC1 (stereo not drawn) [Example 2-306, ethyl 4-[2-[4-(6-azaspiro[2.5]octan-2-ylmethylcarbamoyl)anilino]-[1,2,4]triazolo[1,5-a]pyridin-8-yl]-3,6-dihydro-2H-pyridine-1-carboxylate] |
| 76.1 nM | CCOC(=O)N1CC=C(c2cccn3nc(Nc4ccc(C(=O)N5CCC6CNCC65)cc4)nc23)CC1 (stereo not drawn) [Example 2-308, ethyl 4-[2-[4-(3,3a,4,5,6,6a-hexahydro-2H-pyrrolo[2,3-c]pyrrole-1-carbonyl)anilino]-[1,2,4]triazolo[1,5-a]pyridin-8-yl]-3,6-dihydro-2H-pyridine-1-carboxylate] |
| 184 nM | O=C(CCC(F)(F)F)N1CC=C(c2cccn3nc(Nc4ccc(C(=O)N5CC6CNCC6C5)cc4)nc23)CC1 (stereo not drawn) [Example 2-313, 1-[4-[2-[4-(2,3,3a,4,6,6a-hexahydro-1H-pyrrolo[3,4-c]pyrrole-5-carbonyl)anilino]-[1,2,4]triazolo[1,5-a]pyridin-8-yl]-3,6-dihydro-2H-pyridin-1-yl]-4,4,4-trifluoro-butan-1-one] |
| 194 nM | O=C(CCC(F)(F)F)N1CC=C(c2cccn3nc(Nc4ccc(C(=O)N5CCC6(CC5)CNC6)cc4)nc23)CC1 [Example 2-314, 1-[4-[2-[4-(2,7-diazaspiro[3.5]nonane-7-carbonyl)anilino]-[1,2,4]triazolo[1,5-a]pyridin-8-yl]-3,6-dihydro-2H-pyridin-1-yl]-4,4,4-trifluoro-butan-1-one] |
| 109 nM | NC1CC2(CCN(C(=O)c3ccc(Nc4nc5c(C6=CCN(C(=O)CCC(F)(F)F)CC6)cccn5n4)cc3)CC2)C1 [Example 2-315, 1-[4-[2-[4-(2-amino-7-azaspiro[3.5]nonane-7-carbonyl)anilino]-[1,2,4]triazolo[1,5-a]pyridin-8-yl]-3,6-dihydro-2H-pyridin-1-yl]-4,4,4-trifluoro-butan-1-one] |
| 145 nM | O=C(NCCC1CCCN1)c1ccc(Nc2nc3c(C4=CCN(C(=O)CCC(F)(F)F)CC4)cccn3n2)cc1 (stereo not drawn) [Example 2-316, N-(2-pyrrolidin-2-ylethyl)-4-[[8-[1-(4,4,4-trifluorobutanoyl)-3,6-dihydro-2H-pyridin-4-yl]-[1,2,4]triazolo[1,5-a]pyridin-2-yl]amino]benzamide] |
